One test has as its target Genome polyprotein (Hepatitis C virus, UniProt Q2Q167). The experiment in a line: HCV core protein dimerization inhibitors, dose response, biochemical, TR-FRET (AID 2159).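 Also: blocks dimerization of HCV core protein measured by TR-FRET between tagged core106 pairs.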 More on the design: species or system Hepacivirus hominis.
Test [1] has as its target Peroxisome proliferator-activated receptor gamma/Nuclear receptor corepressor 2 (Homo sapiens, UniProt P37231+Q9Y618). In kind it is functional.
Test [2] addresses Protein-tyrosine kinase 2-beta (Homo sapiens, UniProt Q14289).
The target of test [3] is T1, Voltage-gated N-type calcium channel alpha-1B subunit/Amyloid beta A4 precursor protein-binding family A member 1 (Homo sapiens, UniProt Q00975+Q02410). In kind it is protein assay.
T1 sequence (Q00975 whole entry): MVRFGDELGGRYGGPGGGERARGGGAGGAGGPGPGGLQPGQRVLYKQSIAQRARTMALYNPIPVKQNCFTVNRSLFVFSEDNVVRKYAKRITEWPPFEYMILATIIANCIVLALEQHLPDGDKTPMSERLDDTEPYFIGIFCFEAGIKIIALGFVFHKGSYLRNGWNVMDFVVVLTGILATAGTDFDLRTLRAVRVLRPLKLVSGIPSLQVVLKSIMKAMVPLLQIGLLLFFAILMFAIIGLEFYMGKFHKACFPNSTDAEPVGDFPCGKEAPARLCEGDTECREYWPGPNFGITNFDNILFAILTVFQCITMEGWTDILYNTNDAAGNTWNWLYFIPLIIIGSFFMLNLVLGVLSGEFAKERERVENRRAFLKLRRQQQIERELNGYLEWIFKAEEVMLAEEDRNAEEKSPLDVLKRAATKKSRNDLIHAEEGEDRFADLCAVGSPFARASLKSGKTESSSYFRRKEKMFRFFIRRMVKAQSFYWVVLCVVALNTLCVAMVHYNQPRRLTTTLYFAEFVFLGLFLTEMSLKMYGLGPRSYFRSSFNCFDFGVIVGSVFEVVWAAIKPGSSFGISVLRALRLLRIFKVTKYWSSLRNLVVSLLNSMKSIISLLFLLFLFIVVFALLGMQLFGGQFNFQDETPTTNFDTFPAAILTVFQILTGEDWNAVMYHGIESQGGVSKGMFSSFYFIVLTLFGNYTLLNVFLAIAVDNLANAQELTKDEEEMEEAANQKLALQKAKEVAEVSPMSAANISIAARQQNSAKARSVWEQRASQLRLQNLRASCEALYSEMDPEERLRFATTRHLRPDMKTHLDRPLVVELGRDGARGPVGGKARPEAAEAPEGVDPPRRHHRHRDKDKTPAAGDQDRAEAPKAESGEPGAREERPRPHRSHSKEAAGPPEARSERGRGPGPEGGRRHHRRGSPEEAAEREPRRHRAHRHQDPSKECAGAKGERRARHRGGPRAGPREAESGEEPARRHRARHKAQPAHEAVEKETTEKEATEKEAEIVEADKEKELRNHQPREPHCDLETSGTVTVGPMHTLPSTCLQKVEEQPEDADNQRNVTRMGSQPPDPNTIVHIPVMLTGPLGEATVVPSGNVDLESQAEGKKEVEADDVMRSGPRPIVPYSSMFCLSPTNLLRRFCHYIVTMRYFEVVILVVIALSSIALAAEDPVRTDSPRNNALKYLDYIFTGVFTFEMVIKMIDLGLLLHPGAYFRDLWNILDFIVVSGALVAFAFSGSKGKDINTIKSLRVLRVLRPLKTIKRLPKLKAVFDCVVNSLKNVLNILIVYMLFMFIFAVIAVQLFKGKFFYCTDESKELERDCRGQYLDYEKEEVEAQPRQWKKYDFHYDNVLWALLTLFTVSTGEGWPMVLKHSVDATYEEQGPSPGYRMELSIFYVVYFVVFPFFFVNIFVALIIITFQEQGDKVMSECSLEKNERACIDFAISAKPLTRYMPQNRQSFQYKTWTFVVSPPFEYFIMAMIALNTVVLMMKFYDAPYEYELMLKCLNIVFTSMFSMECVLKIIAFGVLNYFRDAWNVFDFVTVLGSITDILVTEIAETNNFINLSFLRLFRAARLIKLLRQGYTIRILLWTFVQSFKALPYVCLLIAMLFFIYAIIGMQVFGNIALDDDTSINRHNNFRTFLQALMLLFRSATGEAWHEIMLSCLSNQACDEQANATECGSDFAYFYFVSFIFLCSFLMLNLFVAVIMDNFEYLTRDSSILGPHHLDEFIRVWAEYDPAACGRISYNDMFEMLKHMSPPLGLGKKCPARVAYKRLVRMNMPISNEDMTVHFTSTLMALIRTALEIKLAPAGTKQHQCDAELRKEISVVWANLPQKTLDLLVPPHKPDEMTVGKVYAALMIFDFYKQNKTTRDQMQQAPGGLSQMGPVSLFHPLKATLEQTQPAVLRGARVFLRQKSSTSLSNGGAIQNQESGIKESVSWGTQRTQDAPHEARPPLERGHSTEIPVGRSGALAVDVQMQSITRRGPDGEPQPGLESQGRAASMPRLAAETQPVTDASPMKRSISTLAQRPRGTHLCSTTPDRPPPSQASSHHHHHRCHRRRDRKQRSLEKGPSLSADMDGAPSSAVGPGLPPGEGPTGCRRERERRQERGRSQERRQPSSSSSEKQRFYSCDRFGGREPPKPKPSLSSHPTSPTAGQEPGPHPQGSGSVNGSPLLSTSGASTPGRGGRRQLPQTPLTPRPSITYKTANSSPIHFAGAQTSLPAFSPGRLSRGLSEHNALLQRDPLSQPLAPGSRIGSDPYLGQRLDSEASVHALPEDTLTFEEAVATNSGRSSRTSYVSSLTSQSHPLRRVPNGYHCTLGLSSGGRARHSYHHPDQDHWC
T1 sequence (Q02410 whole entry): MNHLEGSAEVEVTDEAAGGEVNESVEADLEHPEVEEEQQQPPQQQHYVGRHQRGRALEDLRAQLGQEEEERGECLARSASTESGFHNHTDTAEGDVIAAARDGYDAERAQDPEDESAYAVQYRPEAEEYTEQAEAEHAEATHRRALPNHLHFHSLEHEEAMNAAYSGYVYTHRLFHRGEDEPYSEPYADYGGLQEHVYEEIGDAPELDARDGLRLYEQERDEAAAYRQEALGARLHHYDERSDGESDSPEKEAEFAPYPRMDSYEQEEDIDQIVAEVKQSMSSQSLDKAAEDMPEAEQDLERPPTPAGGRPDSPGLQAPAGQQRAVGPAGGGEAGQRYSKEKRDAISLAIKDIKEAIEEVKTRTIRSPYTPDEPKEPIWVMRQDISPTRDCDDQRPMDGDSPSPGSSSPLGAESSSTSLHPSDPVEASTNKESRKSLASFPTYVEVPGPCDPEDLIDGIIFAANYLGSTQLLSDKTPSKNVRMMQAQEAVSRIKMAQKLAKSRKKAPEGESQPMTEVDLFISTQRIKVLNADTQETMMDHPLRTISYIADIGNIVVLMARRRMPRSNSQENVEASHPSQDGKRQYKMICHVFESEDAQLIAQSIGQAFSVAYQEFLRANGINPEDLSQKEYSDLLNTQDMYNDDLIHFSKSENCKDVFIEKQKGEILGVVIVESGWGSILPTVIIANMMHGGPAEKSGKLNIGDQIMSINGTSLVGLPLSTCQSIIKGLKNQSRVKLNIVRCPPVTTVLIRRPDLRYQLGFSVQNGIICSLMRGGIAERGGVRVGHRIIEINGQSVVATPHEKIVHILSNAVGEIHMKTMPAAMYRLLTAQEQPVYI
The target in test [4] is Photoreceptor-specific nuclear receptor (Homo sapiens, UniProt Q9Y5X4). In kind it is functional.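 Also: potency for compounds that break the NR2E3 corepressor complex and count as activators.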
Sequence of Photoreceptor-specific nuclear receptor (Q9Y5X4 whole entry): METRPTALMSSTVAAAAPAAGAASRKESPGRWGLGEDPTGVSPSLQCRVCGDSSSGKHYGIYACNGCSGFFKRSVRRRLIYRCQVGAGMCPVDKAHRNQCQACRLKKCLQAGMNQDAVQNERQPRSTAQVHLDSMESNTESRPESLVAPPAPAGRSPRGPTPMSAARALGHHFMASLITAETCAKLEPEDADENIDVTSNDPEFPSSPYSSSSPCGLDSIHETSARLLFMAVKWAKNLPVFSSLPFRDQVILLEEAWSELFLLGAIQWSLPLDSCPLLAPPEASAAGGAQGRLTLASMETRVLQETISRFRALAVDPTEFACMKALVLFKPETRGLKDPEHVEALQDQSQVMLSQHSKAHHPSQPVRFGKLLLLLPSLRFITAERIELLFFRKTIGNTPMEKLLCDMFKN
In test [5] the target is T1, Voltage-gated N-type calcium channel alpha-1B subunit/Amyloid beta A4 precursor protein-binding family A member 1. It is filed as protein assay. This is another data set of the same source.
Another test deals with INS1. The experiment in a line: beta cell apoptosis inhibitors, cytokine rescue, dose response, luminescence, retest (AID 449756).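 Also: cell death triggered by IL-1 beta plus TNF-alpha plus IFN-gamma mixture; protective hits raise ATP signal compared with cytokine alone wells.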 It is filed as functional, cell-based. Conditions: Rattus norvegicus.
Test [6] addresses T2, DNA repair protein RAD52 homolog (Homo sapiens, UniProt P43351).
T2 sequence (P43351 whole entry): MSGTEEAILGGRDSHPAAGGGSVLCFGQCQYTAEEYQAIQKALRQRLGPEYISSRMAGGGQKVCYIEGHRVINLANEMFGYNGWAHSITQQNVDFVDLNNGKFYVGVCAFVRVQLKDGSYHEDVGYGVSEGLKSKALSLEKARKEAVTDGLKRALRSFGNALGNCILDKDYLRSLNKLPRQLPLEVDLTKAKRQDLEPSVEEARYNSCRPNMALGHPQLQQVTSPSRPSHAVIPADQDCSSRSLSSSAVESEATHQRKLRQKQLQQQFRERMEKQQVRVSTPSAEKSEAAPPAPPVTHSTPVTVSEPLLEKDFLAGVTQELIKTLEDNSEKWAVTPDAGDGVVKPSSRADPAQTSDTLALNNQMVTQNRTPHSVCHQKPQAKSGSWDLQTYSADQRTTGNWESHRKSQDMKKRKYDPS
In kind it is functional, biochemical.

Test [7] in a line: Glucagon-like peptide 1 release potency, NCI-H716 cell line, dose-response, half-maximal inhibitory concentration (AID 1117344). In kind it is functional, cell-based.
Test [8] is described as follows: half-maximal inhibitory concentration for glucagon-like peptide-1 release, STC-1 cell line, dose-response (AID 1117345). In kind it is functional, cell-based.
The test system of another test is Streptococcus. In words: Group A Streptococcus viability loss, dose response, counter-screen for streptokinase expression inhibitor project, luminescence, BacTiterGlo (AID 1915).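 Also: potency for reduction of bacterial viability or growth.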 It is filed as functional, organism-based.
For another test, the target named is Vasopressin V1a receptor (Homo sapiens, UniProt P37288). The experiment in a line: Counterscreen for Oxytocin Receptor (OXTR) agonists: Fluorescence-based cell-based high throughput dose response assay to identify agonists of the vasopressin 1 receptor (V1R). [Related pubchem assays: 2435 (Primary screen (OXTR agonists in singlicate)), 434991 (Counterscreen (V1R agonists in triplicate)), 2482 (Summary (OXTR agonists)) …. It is filed as functional.
Sequence of Vasopressin V1a receptor (P37288 whole entry): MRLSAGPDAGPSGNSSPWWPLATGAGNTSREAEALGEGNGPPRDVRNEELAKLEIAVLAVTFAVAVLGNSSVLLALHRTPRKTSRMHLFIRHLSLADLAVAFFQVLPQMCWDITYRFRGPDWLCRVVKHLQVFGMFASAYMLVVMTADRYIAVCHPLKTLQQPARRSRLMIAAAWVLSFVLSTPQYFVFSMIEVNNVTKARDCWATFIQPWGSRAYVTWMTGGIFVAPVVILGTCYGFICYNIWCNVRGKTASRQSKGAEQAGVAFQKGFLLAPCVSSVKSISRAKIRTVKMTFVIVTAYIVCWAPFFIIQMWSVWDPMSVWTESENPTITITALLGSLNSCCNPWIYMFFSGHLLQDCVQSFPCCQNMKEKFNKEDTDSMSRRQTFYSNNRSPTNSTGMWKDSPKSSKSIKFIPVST

Test [9] deals with Streptococcus sp. 'group A'. In words: growth inhibition of control SK(-) GAS strain, dose response, counter-screen for streptokinase expression inhibitor project, luminescence, kanamycin, BacTiterGlo, confirmation (AID 1900). It is filed as functional, organism-based.
Test [10] in a line: microbe, parasite or virus in culture. As to conditions: Mycobacterium tuberculosis. It is filed as functional.
A short description of test [11]: RKO cell viability reduction, dose response, CellTiter-Glo luminescence (AID 1117322). It is filed as functional.
Test [12] can be described thus: cytotoxicity toward HCT116 cells – cell-based, CellTiter-Glo luminescence, IC50, dose response (AID 1117332). It is filed as functional. As to conditions: HCT-116.
Another test deals with Oxytocin receptor (Homo sapiens, UniProt P30559). The experiment in a line: Fluorescence-based cell-based high throughput dose response assay for agonists of the Oxytocin Receptor (OXTR). [Related pubchem assays: 2435 (Primary screen (OXTR agonists in singlicate)), 434991 (Counterscreen (V1R agonists in triplicate)), 2482 (Summary (OXTR agonists)), 434963 (Confirmation screen (OXTR agonists in triplicate))]. In kind it is functional.
Sequence of Oxytocin receptor (P30559 whole entry): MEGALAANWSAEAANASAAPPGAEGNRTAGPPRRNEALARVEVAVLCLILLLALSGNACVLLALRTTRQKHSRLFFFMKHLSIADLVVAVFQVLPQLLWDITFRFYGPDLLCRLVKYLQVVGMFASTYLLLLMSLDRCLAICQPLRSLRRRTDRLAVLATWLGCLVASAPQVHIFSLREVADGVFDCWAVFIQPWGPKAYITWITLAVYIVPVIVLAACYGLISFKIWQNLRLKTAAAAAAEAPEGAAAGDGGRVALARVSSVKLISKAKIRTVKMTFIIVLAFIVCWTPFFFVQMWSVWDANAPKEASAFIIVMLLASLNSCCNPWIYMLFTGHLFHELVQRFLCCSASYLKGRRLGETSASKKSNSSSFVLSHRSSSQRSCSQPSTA

The target in test [13] is T3, Replicative DNA helicase DnaB (Mycobacterium tuberculosis, UniProt P9WMR3).
T3 sequence (P9WMR3 whole entry): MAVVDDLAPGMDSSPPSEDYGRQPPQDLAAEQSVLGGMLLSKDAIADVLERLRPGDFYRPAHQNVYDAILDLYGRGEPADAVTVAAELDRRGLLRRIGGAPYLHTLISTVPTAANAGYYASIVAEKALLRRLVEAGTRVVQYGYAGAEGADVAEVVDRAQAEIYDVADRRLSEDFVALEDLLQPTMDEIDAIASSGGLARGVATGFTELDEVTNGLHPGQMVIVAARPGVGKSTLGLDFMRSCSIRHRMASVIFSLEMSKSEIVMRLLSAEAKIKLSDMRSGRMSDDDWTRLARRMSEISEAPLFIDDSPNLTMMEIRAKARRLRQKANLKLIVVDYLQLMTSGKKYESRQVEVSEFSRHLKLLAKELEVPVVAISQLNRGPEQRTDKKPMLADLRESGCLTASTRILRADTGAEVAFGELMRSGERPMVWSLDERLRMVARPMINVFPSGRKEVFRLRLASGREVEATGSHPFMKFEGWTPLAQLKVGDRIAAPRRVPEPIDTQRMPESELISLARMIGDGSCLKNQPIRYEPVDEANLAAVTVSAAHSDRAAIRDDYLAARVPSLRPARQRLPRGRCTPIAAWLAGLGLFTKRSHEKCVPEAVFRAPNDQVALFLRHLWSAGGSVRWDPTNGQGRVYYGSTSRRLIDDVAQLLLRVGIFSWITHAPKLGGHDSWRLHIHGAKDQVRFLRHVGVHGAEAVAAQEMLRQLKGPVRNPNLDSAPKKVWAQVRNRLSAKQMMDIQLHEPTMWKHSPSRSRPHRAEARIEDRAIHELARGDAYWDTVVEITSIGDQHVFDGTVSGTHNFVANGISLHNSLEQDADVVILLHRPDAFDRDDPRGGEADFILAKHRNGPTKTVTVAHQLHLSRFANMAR
The experiment in a line: DnaB intein splicing inhibitors, dose response, biochemical, cell-free fluorescence (AID 449749). It is filed as functional.

The nature of test [14]: SNU-C1 cell viability reduction, dose response, CellTiter-Glo luminescence (AID 1117323). In kind it is functional, cell-based.
The nature of test [15]: cytotoxicity toward Colo320 cells – cell-based, CellTiter-Glo luminescence, IC50, dose response (AID 1117334). As to conditions: COLO 320. It is filed as functional.
Test [16] can be described thus: cytotoxicity toward HT-29 cells – cell-based, CellTiter-Glo luminescence, IC50, dose response (AID 1117330). In kind it is functional.
Test [17] is described as follows: CellTiter-Glo luminescent dose response of DLD-1 viability loss (AID 1117352). In kind it is functional.
The nature of test [18]: HCT116 cell viability decrease, GSK3B pretreatment – CellTiter-Glo, IC50, dose response (AID 1117339). As to conditions: HCT-116. In kind it is functional.
Test [19] deals with Heat shock protein HSP 90-alpha (Homo sapiens, UniProt P07900). It is filed as functional, organism-based.
A further test relates to Vero. In words: Vero cell cytotoxicity, cytotoxicity control for flavivirus capping enzyme inhibitors (AID 588742). In kind it is functional. Conditions: Chlorocebus sabaeus.
Another test deals with T4, Protein RecA (Mycobacterium tuberculosis, UniProt P9WHJ3).
T4 sequence (P9WHJ3 whole entry): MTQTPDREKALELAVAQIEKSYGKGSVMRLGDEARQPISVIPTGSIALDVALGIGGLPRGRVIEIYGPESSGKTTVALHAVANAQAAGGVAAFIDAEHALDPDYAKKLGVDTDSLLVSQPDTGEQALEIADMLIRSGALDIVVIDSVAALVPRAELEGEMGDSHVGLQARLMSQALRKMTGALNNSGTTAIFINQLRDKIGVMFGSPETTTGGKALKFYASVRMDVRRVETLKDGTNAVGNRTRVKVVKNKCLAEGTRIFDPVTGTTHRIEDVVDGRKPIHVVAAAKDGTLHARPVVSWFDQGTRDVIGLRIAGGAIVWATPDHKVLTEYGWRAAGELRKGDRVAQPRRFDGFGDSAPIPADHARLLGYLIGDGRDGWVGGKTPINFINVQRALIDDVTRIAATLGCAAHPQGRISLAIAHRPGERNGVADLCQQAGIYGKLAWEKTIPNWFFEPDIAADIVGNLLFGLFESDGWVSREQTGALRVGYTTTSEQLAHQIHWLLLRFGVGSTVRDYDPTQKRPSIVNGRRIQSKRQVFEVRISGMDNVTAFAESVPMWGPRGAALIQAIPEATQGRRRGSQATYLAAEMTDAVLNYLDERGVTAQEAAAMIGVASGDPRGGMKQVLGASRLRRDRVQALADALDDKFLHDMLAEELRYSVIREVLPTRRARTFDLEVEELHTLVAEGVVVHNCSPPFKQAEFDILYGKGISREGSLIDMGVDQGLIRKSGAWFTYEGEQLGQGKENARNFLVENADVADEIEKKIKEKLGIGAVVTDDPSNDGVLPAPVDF
In words: Fluorescence Cell-Free Homogeneous Dose Retest to Identify Inhibitors of RecA-Intein Splicing Activity. [Related pubchem assays (depositor defined):AID2097, AID2223, AID489010, AID492950]. It is filed as functional.

Test [20] in a line: Concentration-dependent survival of SW480 colon cancer line, luminescence detection with CellTiter-Glo, half-maximal inhibitory concentration (AID 1117338). It is filed as functional.
The next test has as its target T5, Streptokinase A (Streptococcus pyogenes serotype M1, UniProt P10520).
T5 sequence (P10520 whole entry): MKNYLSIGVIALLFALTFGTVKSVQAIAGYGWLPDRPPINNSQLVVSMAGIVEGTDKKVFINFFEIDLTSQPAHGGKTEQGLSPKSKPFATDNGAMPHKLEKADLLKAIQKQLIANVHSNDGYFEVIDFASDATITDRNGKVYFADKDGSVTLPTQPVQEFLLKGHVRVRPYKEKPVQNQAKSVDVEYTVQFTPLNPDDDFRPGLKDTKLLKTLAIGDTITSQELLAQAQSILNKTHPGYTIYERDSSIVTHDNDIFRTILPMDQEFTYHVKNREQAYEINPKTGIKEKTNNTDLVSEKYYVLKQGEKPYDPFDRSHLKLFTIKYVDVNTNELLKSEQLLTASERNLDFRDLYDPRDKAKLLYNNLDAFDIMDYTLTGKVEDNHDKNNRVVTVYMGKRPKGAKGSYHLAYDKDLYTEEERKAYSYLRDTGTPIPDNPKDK
The experiment in a line: S. pyogenes streptokinase expression inhibitors, potency, dose response, plasminogen activation absorbance, OD405 (AID 1914).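 Also: secreted streptokinase activity via plasminogen activation per viability signal from cell pellet.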 In kind it is functional, Streptococcus pyogenes M1 GAS.

Each structure is given as a SMILES string. The source made the active and inactive calls.

Sequence of Genome polyprotein (Q2Q167 whole entry): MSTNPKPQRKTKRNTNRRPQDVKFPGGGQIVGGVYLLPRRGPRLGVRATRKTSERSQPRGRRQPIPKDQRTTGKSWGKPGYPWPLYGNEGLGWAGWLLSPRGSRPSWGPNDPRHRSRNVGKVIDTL

In the case of `Cc1c(N2C(=O)c3ccc4c5c(ccc(c35)C2=O)CC4)c(=O)n(-c2ccccc2)n1C`, the IC50 is > 49.8 µM (not active) at Genome polyprotein; > 39.8 µM (not active) in test [1]; 2.27 µM (active) in test [2]; 15.7 µM (active) in [3]; > 39.8 µM (not active) in test [4]; 5.83 µM (active) in test [5].

As to `CCCCCCCCCCCCCCCC[N+](C)(C)CC`, the half-maximal activity concentration (AC50) was 2.97 µM (active) in the test on INS1, 8.98 µM (active) in [6], 4.56 µM (active) in [13] and 1.16 µM (active) in [19]. The IC50 is 11.7 µM (inactive) in test [7]; > 40 µM (inactive) in test [8]; 0.931 µM (active) in test [11]; 3.16 µM (active) in [12]; 0.004 µM (active) in test [14]; 0.0372 µM (active) in [15]. Further, the IC50 in test [16] is 0.409 µM (active); in [17], 0.74 µM (active); in test [18] it was 2.68 µM (active); in test [20], 1.24 µM (active). Further, the EC50 with Streptococcus is 8.57 µM (active); at Vasopressin V1a receptor, > 3.32 µM (active); in [9] it was 1.3 µM (active); at Oxytocin receptor, > 29.9 µM (not active); on Protein RecA, 13.2 µM (active); on Streptokinase A it was 23.2 µM (inconclusive). Besides, the CC50 is 34.8 µM (active) in [10] and 32.7 µM (active) in the test on Vero.
